Results reported in ChEMBL document CHEMBL3397017, “Discovery of a new series of potent prostacyclin receptor agonists with in vivo activity in rat” (Bioorg Med Chem Lett, 2015).
The source made the active and inactive calls. The rule behind the calls is not given here.

Assays:
[1] = molecular target: Prostacyclin receptor (Rattus norvegicus) (UniProt P43253); assay: Intrinsic activity at rat recombinant IP receptor expressed in CHO-K1 cells incubated for 1 hr by HTRF cAMP assay relative to 1 uM iloprost; type: functional, cell-based
[2] = molecular target: Prostacyclin receptor (Rattus norvegicus, UniProt P43253); assay: Agonist activity at rat recombinant IP receptor expressed in CHO-K1 cells incubated for 1 hr by HTRF cAMP assay; type: functional, cell-based
[3] = molecular target: T1, Prostacyclin receptor (Homo sapiens, UniProt P43119); assay: Intrinsic activity at human recombinant IP receptor expressed in CHO-K1 cells incubated for 1 hr by HTRF cAMP assay relative to 1 uM iloprost; type: functional, cell-based
[4] = molecular target: T1, Prostacyclin receptor; assay: Agonist activity at human recombinant IP receptor expressed in CHO-K1 cells incubated for 1 hr by HTRF cAMP assay; type: functional, cell-based
[5] = molecular target: T2, Prostaglandin D2 receptor (Homo sapiens, UniProt Q13258); assay: Agonist activity at human recombinant DP1 receptor expressed in melanophores assessed as induction of pigment redistribution incubated for 90 mins
T2 sequence (Q13258 whole entry): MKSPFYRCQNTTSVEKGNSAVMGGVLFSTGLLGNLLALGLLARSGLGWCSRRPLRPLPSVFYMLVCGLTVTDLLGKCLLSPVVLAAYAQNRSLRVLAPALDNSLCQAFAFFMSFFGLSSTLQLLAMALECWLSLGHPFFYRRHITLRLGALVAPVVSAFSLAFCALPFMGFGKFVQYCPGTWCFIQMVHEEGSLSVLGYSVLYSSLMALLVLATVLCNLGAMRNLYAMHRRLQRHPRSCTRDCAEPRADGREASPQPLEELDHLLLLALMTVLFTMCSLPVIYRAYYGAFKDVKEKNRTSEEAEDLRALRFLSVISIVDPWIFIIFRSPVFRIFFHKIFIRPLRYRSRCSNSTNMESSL

[6] = tested on: Rattus norvegicus; assay: Prevention of right ventricular weight increase in rat model of monocrotaline-induced pulmonary arterial hypertension at 10 mg/kg, sc administered twice daily for 21 days relative to sham animal (reference value: 19 no unit); type: functional
[7] = molecular target: T2, Prostaglandin D2 receptor; assay: Agonist activity at human recombinant DP1 receptor by melanophore assay
[8] = Half life in iv dosed rat; type: ADME, organism-based; details: in vivo
[9] = tested on: Rattus norvegicus; assay: Prevention of right ventricular weight increase in rat model of monocrotaline-induced pulmonary arterial hypertension at 30 mg/kg, sc administered twice daily for 21 days relative to sham animal (reference value: 19 no unit); type: functional
[10] = Oral bioavailability in rat; type: ADME, organism-based; details: in vivo
[11] = tested on: Liver microsome; assay: Stability in rat liver microsomes; type: ADME
[12] = tested on: Liver microsome; assay: Stability in human liver microsomes; type: ADME
[13] = tested on: Rattus norvegicus; assay: Prevention of right ventricular weight increase in rat model of monocrotaline-induced pulmonary arterial hypertension administered subcutaneously twice daily for 21 days; type: functional, organism-based; details: Heart right ventricle
[14] = organism: Homo sapiens; assay: Selectivity index, ratio of EC50 for human recombinant DP1 receptor to EC50 for human recombinant IP receptor
[15] = Half life in sc dosed rat; type: ADME, organism-based; details: in vivo
[16] = tested on: Rattus norvegicus; assay: Improvement in right ventricular systolic pressure in rat model of monocrotaline-induced pulmonary arterial hypertension at 10 mg/kg, sc administered twice daily for 21 days; type: functional, organism-based; design: dose 10 mg/kg; details: Heart right ventricle
[17] = tested on: Rattus norvegicus; assay: Prevention of right ventricular weight increase in rat model of monocrotaline-induced pulmonary arterial hypertension at 1 mg/kg, sc administered twice daily for 21 days relative to sham animal (reference value: 19 no unit); type: functional, Heart right ventricle; details: route subcutaneous

Sequence of Prostacyclin receptor (Rattus norvegicus) (P43253 whole entry): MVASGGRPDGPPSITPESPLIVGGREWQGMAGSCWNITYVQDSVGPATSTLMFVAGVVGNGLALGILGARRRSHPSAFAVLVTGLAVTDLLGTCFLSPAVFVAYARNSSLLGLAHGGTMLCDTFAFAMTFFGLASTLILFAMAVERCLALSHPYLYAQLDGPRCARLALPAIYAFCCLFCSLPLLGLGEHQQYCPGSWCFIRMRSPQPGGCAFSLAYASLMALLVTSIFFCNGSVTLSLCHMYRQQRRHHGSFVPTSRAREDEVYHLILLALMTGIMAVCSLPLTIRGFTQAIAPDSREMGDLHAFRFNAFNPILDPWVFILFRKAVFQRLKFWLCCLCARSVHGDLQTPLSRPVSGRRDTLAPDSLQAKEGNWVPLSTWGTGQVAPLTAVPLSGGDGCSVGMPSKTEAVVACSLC
Sequence of Prostacyclin receptor (Rattus norvegicus, UniProt P43253) (P43253 whole entry): as above
T1 sequence (P43119 whole entry): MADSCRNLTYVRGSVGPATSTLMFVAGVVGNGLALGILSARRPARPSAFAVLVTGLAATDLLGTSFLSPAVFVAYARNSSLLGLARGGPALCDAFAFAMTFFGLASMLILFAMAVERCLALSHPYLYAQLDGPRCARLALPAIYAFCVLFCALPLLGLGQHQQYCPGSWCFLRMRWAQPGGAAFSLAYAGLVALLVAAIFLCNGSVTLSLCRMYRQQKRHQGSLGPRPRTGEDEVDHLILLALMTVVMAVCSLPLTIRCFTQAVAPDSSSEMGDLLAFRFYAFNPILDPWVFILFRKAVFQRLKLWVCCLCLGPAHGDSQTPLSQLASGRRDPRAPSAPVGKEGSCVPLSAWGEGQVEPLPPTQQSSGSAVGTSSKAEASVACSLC

Row | SMILES | Intrinsic activity [1] [%] | EC50 [2] [nM] | Intrinsic activity [3] [%] | EC50 [4] [nM] | EC50 [5] [nM] | Stability [11] | Stability [12] | also measured
1 | O=C(O)COc1cccc2c1CCC(Cn1ncc(-c3cccc(F)c3)c(-c3ccccc3)c1=O)C2 (racemic) | 103 | 410 | 82 | 60 | 88 |  |  | 
2 | O=C(O)COc1cccc2c1CC[C@@H](Cn1ncc(-c3cccc(F)c3F)c(-c3ccc(F)cc3)c1=O)C2 (racemic) | 100 | 200 | 98 | 6 | 48 |  |  | Activity ([6]; Heart right ventricle): inactive; EC50 [7]: 140 nM; half-life [8]: 2 h; Activity ([9]; Heart right ventricle): inactive; bioavailability [10]: 76%
3 | O=C(O)COc1cccc2c1CCC(Cn1ncc(-c3cccc(F)c3F)c(-c3ccc(F)cc3)c1=O)C2 (racemic) | 103 | 266 | 94 | 33 | 42 |  |  | 
4 | O=C(O)COc1cccc2c1CCC(Cn1ncc(-c3cccc(Cl)c3)c(-c3ccccc3)c1=O)C2 (racemic) | 98 | 260 | 93 | 86 |  |  |  | 
5 | O=C(O)COc1cccc2c1CCC(Cn1ncc(-c3ccccc3)c(-c3ccc(F)cc3)c1=O)C2 (racemic) | 104 | 170 | 80 | 20 |  |  |  | 
6 | O=C(O)COc1cccc2c1CCC(Cn1ncc(-c3ccccc3F)c(-c3ccccc3)c1=O)C2 (racemic) | 99 | 420 | 106 | 120 | 31 |  |  | 
7 | COc1cccc(-c2cnn(CC3CCc4c(cccc4OCC(=O)O)C3)c(=O)c2-c2ccccc2)c1 (racemic) | 81 | 690 | 101 | 140 | 48 | Unstable | Unstable | 
8 | COc1cccc(-c2cc(=O)n(CC3CCc4c(cccc4OCC(=O)O)C3)nc2-c2ccc(C)cc2)c1 (racemic) | 107 | 28 | 81 | 9.5 | 11 |  |  | 
9 | O=C(O)COc1cccc2c1CCC(Cn1ncc(-c3ccccc3)c(-c3cccc(F)c3)c1=O)C2 (racemic) | 121 | 790 | 100 | 260 |  |  |  | 
10 | O=C(O)COc1cccc2c1CCC(Cn1ncc(-c3ccccc3)c(-c3ccccc3)c1=O)C2 (racemic) | 88 | 260 | 75 | 100 | 180 |  |  | 
11 | O=C(O)COc1cccc2c1CCC(Cn1ncc(-c3ccccc3)c(-c3ccccc3F)c1=O)C2 (racemic) | 116 | 370 | 91 | 140 |  |  |  | 
12 | COc1ccc(-c2c(-c3ccccc3)cnn(CC3CCc4c(cccc4OCC(=O)O)C3)c2=O)cc1 (racemic) | 105 | 11 | 72 | 4 |  | Unstable | Unstable | 
13 | COc1ccc(-c2cnn(CC3CCc4c(cccc4OCC(=O)O)C3)c(=O)c2-c2ccccc2)cc1 (racemic) |  | > 3000 | 73 | 1060 |  | Unstable | Unstable | 
14 | O=C(O)COc1cccc2c1CCC(Cn1ncc(-c3cccc(F)c3F)c(-c3ccccc3)c1=O)C2 (racemic) | 101 | 110 | 87 | 38 | 36 | Stable | Stable | fold change (FC) ([6]; route subcutaneous): 9; Activity [13]: Dose-dependent effect; Ratio EC50 [14]: 10; EC50 [7]: 400 nM; half-life [15]: 2.5 h; Activity [16]: Active; fold change (FC) ([9]; route subcutaneous): 13; fold change (FC) [17]: 9
15 | COc1ccc(-c2c(-c3ccccc3)cnn(CC3CCc4c(cccc4OCC(=O)O)C3)c2=O)cc1F (racemic) | 100 | 174 | 84 | 85 |  | Unstable | Unstable | 

More lines, main results first:

Row | Intrinsic activity [1] [%] | EC50 [2] [nM] | Intrinsic activity [3] [%] | EC50 [4] [nM] | EC50 [5] [nM] | Stability [11] | Stability [12] | SMILES | also measured
16 | 99 | 2370 | 88 | 1060 |  |  |  | O=C(O)COc1cccc2c1CCC(Cn1nc(-c3cccc(F)c3)c(-c3ccccc3)cc1=O)C2 (racemic) | 
17 | 99 | 120 | 67 | 24 |  |  |  | Cc1ccc(-c2nn(CC3CCc4c(cccc4OCC(=O)O)C3)c(=O)cc2-c2ccccc2)cc1 (racemic) | 
18 |  | > 10000 | 47 | 2670 |  | Unstable | Unstable | COc1ccc(-c2cc(=O)n(CC3CCc4c(cccc4OCC(=O)O)C3)nc2-c2ccccc2)cc1 (racemic) | 
19 | 102 | 620 | 91 | 62 | 24 |  |  | COc1cccc(-c2cc(=O)n(CC3CCc4c(cccc4OCC(=O)O)C3)nc2-c2ccc(F)cc2)c1 (racemic) | 
20 | 76 | 112 | 78 | 20 | 31 | Unstable | Unstable | COc1ccc(-c2nn(CC3CCc4c(cccc4OCC(=O)O)C3)c(=O)cc2-c2ccccc2)c(F)c1 (racemic) | 
21 | 98 | 40 | 78 | 10 | 40 | Unstable | Unstable | COc1cccc(-c2cnn(CC3CCc4c(cccc4OCC(=O)O)C3)c(=O)c2-c2ccccc2)c1F (racemic) | 
22 |  | > 10000 | 87 | 1720 |  | Unstable | Unstable | COc1cccc(-c2nn(CC3CCc4c(cccc4OCC(=O)O)C3)c(=O)cc2-c2ccccc2)c1 (racemic) | 
23 | 93 | 12.5 | 80 | 8.5 | 1.7 | Unstable | Unstable | COc1ccc(-c2nn(CC3CCc4c(cccc4OCC(=O)O)C3)c(=O)cc2-c2ccccc2)cc1 (racemic) | 
24 | 70 | 2190 | 60 | 969 | 21 |  |  | O=C(O)COc1cccc2c1CCC(Cn1nc(-c3ccccc3)c(-c3ccccc3)cc1=O)C2 (racemic) | 
25 | 93 | 1500 | 89 | 114 |  |  |  | O=C(O)COc1cccc2c1CCC(Cn1nc(-c3ccc(F)cc3)c(-c3ccccc3)cc1=O)C2 (racemic) | 
26 | 85 | 350 | 97 | 37 | 6 | Unstable | Unstable | COc1cccc(-c2cc(=O)n(CC3CCc4c(cccc4OCC(=O)O)C3)nc2-c2ccccc2)c1F (racemic) | 
27 | 75 | 51 | 80 | 10 | 3 | Unstable | Unstable | COc1ccc(-c2nn(CC3CCc4c(cccc4OCC(=O)O)C3)c(=O)cc2-c2ccccc2)cc1F (racemic) | 
28 | 72 | 370 | 97 | 180 | 25 |  |  | Cc1cccc(-c2cc(=O)n(CC3CCc4c(cccc4OCC(=O)O)C3)nc2-c2ccccc2)c1 (racemic) | 
29 | 97 | 900 | 63 | 380 | 44 |  |  | O=C(O)COc1cccc2c1CCC(Cn1nc(-c3ccccc3)c(-c3cccc(F)c3)cc1=O)C2 (racemic) | 
30 | 62 | 360 | 77 | 60 | 61 |  |  | O=C(O)COc1cccc2c1CCC(Cn1nc(-c3ccccc3)c(-c3cccc(Cl)c3)cc1=O)C2 (racemic) | 
31 | 96 | 310 | 88 | 60 | 17 | Unstable | Unstable | COc1cccc(-c2cc(=O)n(CC3CCc4c(cccc4OCC(=O)O)C3)nc2-c2ccccc2)c1 (racemic) | 
